Consider 19 compounds from patent publication US10329309B2, “3-(3H-imidazo[4,5-B]pyridin-2-yl)-1H-pyrazolo[4,3-B]pyridines and therapeutic uses thereof” (Samumed, LLC, priority 2015, dated 2019).

By inhibition is commonly meant the change of the read-out against control, counted positive when it falls.

For assay [1], the system named is primary human fibroblasts derived from IPF patients (LL29 cells), α-smooth muscle actin (αSMA). Kind of assay: Inhibition of the fibrotic process: TGF-β1-treated primary human fibroblasts from IPF patients, αSMA staining. It counts as cell-based. To be noted: Fibroblast, 96 h, 4 days; for EC50: LL29 fibroblasts from IPF patients, TGF-β1 20 ng/mL, inhibition of fibrotic process; for inhibition at 10 µM: LL29 fibroblasts, TGF-β1 treated, read-out: percent inhibition at 10 μM (given for EC50 of >10 μM). Put shortly: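 Read-out: fraction of αSMA-positive cells by high-content imaging, SYTOX-stained dead cells excluded, normalized to TGF-β1/DMSO wells. Cells got compound (10 μM–[…], 11 points) plus TGF-β1 20 ng/mL for 4 days. EC50 from triplicate curves; above 10 μM, % inhibition at 10 μM given.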

The test system of assay [2] is primary human mesenchymal stem cells (hMSCs). Briefly: Induction of chondrogenesis in primary human mesenchymal stem cells (nodule imaging, Rhodamine B/Nile Red). It counts as cell-based. To be noted: hMSC chondrogenesis; for Emax: TGF-β3 as positive control, read-out: Max. Activity as % TGF-β3 activity; for EC50: concentration required to induce 50% levels of chondrogenesis vs TGF-β3, read-out: Conc (nM) of 50% TGF-β3 activity. Put shortly: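 hMSCs (passage 3–6) in incomplete chondrogenic induction medium were dosed at 2700–10 nM (96-well, 6-point) or 5000–2.2 nM (384-well, 8-point), 0.03% DMSO final, for 6 days at 37° C. Fixed nodules stained with Rhodamine B/Nile Red were imaged; nodule area normalized to DMSO wells gave EC50, maximum activity and dose at maximum, with TGF-β3 (10 ng/mL) as positive control.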

Bounds are passed on as bounds.

In assay [1], `CN(C)Cc1cncc(-c2ccc3[nH]nc(-c4nc5c(-c6cccs6)ccnc5[nH]4)c3n2)c1` [Compound 349, N,N-dimethyl-1-(5-(3-(7-(thiophen-2-yl)-3H-imidazo[4,5-b]pyridin-2-yl)-1H-pyrazolo[4,3-b]pyridin-5-yl)pyridin-3-yl)methanamine] yielded an EC50 of 1420 nM. Besides, in assay [2], the Emax was found to be 108% and the EC50 was 30 nM.

As for `Cc1ccc(-c2ccnc3[nH]c(-c4n[nH]c5ccc(-c6cncc(N)c6)nc45)nc23)s1` [Compound 395, 5-(3-(7-(5-methylthiophen-2-yl)-3H-imidazo[4,5-b]pyridin-2-yl)-1H-pyrazolo[4,3-b]pyridin-5-yl)pyridin-3-amine], the EC50 in assay [1] is 97 nM. In addition, in assay [2], the Emax is 118% and the EC50 was determined as 100 nM.

For the compound `Cc1ccc(-c2ccnc3[nH]c(-c4n[nH]c5ccc(-c6cncc(NC(=O)C(C)C)c6)nc45)nc23)s1` [Compound 401, N-(5-(3-(7-(5-methylthiophen-2-yl)-3H-imidazo[4,5-b]pyridin-2-yl)-1H-pyrazolo[4,3-b]pyridin-5-yl)pyridin-3-yl)isobutyramide], the EC50 in assay [1] amounted to 158 nM; in assay [2], 1670 nM. In assay [2], the Emax was 66%.

In the case of `CC(C)Nc1cncc(-c2ccc3[nH]nc(-c4nc5c(-c6cc(F)cc(NCCN(C)C)c6)ccnc5[nH]4)c3n2)c1` [Compound 460, N^1-(3-fluoro-5-(2-(5-(5-(isopropylamino)pyridin-3-yl)-1H-pyrazolo[4,3-b]pyridin-3-yl)-3H-imidazo[4,5-b]pyridin-7-yl)phenyl)-N^2,N^2-dimethylethane-1,2-diamine], the EC50 is 2450 nM in assay [1] and 30 nM in assay [2]. Besides, the Emax in assay [2] stood at 63%.

`Cc1ccncc1-c1ccc2[nH]nc(-c3nc4c(-c5cc(F)cc(CNS(C)(=O)=O)c5)ccnc4[nH]3)c2n1` [Compound 481, N-(3-fluoro-5-(2-(5-(4-methylpyridin-3-yl)-1H-pyrazolo[4,3-b]pyridin-3-yl)-3H-imidazo[4,5-b]pyridin-7-yl)benzyl)methanesulfonamide] registered an EC50 in assay [1] of 5180 nM. The Emax in assay [2] was found to be 47%.

Turning to `Fc1cccc(-c2ccnc3[nH]c(-c4n[nH]c5ccc(C6=CCNCC6)nc45)nc23)c1` [Compound 506, 3-(7-(3-fluorophenyl)-3H-imidazo[4,5-b]pyridin-2-yl)-5-(1,2,3,6-tetrahydropyridin-4-yl)-1H-pyrazolo[4,3-b]pyridine], in assay [1], the EC50 is more than 10000 nM and the inhibition at 10 µM amounted to 0%. The Emax in assay [2] turned out to be 47%.

Consider `Cc1ncc(-c2ccc3[nH]nc(-c4nc5c(-c6cccc(F)c6)ccnc5[nH]4)c3n2)n1C` [Compound 509, 5-(1,2-dimethyl-1H-imidazol-5-yl)-3-(7-(3-fluorophenyl)-3H-imidazo[4,5-b]pyridin-2-yl)-1H-pyrazolo[4,3-b]pyridine], for which, in assay [1], the EC50 is more than 10000 nM and the inhibition at 10 µM was determined as 0%. Besides, in assay [2], the Emax was 97% and the EC50 stood at 10 nM.

In the case of `NC1CN(c2cncc(-c3ccc4[nH]nc(-c5nc6c(-c7cccc(F)c7)ccnc6[nH]5)c4n3)n2)C1` [Compound 510, 1-(6-(3-(7-(3-fluorophenyl)-3H-imidazo[4,5-b]pyridin-2-yl)-1H-pyrazolo[4,3-b]pyridin-5-yl)pyrazin-2-yl)azetidin-3-amine], in assay [1], the EC50 is more than 10000 nM and the inhibition at 10 µM was 0%. Besides, in assay [2], the Emax amounted to 46%.

In assay [1], `CN(C)CCOc1cncc(-c2ccc3[nH]nc(-c4nc5c(-c6cccc(F)c6)ccnc5[nH]4)c3n2)c1` [Compound 515, 2-((5-(3-(7-(3-fluorophenyl)-3H-imidazo[4,5-b]pyridin-2-yl)-1H-pyrazolo[4,3-b]pyridin-5-yl)pyridin-3-yl)oxy)-N,N-dimethylethan-1-amine] yielded an EC50 of 2610 nM. Moreover, the Emax in assay [2] worked out at 45%.

`COc1cncc(-c2ccc3[nH]nc(-c4nc5c(-c6cccc(F)c6)ccnc5[nH]4)c3n2)c1` [Compound 516, 3-(7-(3-fluorophenyl)-3H-imidazo[4,5-b]pyridin-2-yl)-5-(5-methoxypyridin-3-yl)-1H-pyrazolo[4,3-b]pyridine] gave an EC50 in assay [1] of 1580 nM. Besides, in assay [2], the Emax is 47%.

Consider `Oc1cncc(-c2ccc3[nH]nc(-c4nc5c(-c6cccc(F)c6)ccnc5[nH]4)c3n2)c1` [Compound 517, 5-(3-(7-(3-fluorophenyl)-3H-imidazo[4,5-b]pyridin-2-yl)-1H-pyrazolo[4,3-b]pyridin-5-yl)pyridin-3-ol], for which the EC50 in assay [1] worked out at 1150 nM. For the same compound, in assay [2], the Emax is 59% and the EC50 is 2 nM.

The compound `Fc1cccc(-c2ccnc3[nH]c(-c4n[nH]c5ccc(-c6cnccn6)nc45)nc23)c1` [Compound 520, 3-(7-(3-fluorophenyl)-3H-imidazo[4,5-b]pyridin-2-yl)-5-(pyrazin-2-yl)-1H-pyrazolo[4,3-b]pyridine] displayed an EC50 in assay [1] of 5330 nM. Besides, in assay [2], the Emax came to 63% and the EC50 was 2 nM.

`CN(C)CC(=O)Nc1cncc(-c2ccc3[nH]nc(-c4nc5c(-c6cccc(F)c6)ccnc5[nH]4)c3n2)c1` [Compound 969, 2-(dimethylamino)-N-(5-(3-(7-(3-fluorophenyl)-3H-imidazo[4,5-b]pyridin-2-yl)-1H-pyrazolo[4,3-b]pyridin-5-yl)pyridin-3-yl)acetamide] showed an EC50 in assay [1] of 4930 nM. Besides, in assay [2], the Emax was found to be 72% and the EC50 is 7 nM.

`COc1cccc(-c2ccnc3[nH]c(-c4n[nH]c5ccc(-c6cccnc6)nc45)nc23)c1` [Compound 994, 3-(7-(3-methoxyphenyl)-3H-imidazo[4,5-b]pyridin-2-yl)-5-(pyridin-3-yl)-1H-pyrazolo[4,3-b]pyridine] gave an EC50 in assay [1] of 590 nM. Also, in assay [2], the Emax came to 50% and the EC50 was 100 nM.

On to `COc1cccc(-c2ccnc3[nH]c(-c4n[nH]c5ccc(-c6cncc(NC(=O)Cc7ccccc7)c6)nc45)nc23)c1` [Compound 1000, N-(5-(3-(7-(3-methoxyphenyl)-3H-imidazo[4,5-b]pyridin-2-yl)-1H-pyrazolo[4,3-b]pyridin-5-yl)pyridin-3-yl)-2-phenylacetamide], for which, in assay [1], the EC50 is more than 10000 nM and the inhibition at 10 µM was found to be 23.4%. Also, the Emax in assay [2] came out at 46%.

In the case of `CC(C)CC(=O)Nc1cncc(-c2ccc3[nH]nc(-c4nc5c(-c6ccc(Cl)s6)ccnc5[nH]4)c3n2)c1` [Compound 1037, N-(5-(3-(7-(5-chlorothiophen-2-yl)-3H-imidazo[4,5-b]pyridin-2-yl)-1H-pyrazolo [4,3-b]pyridin-5-yl)pyridin-3-yl)-3-methylbutanamide], the EC50 in assay [1] amounted to 511 nM; in assay [2], 10 nM. Further, in assay [2], the Emax is 67%.

As to `CC(C)(C)C(=O)Nc1cncc(-c2ccc3[nH]nc(-c4nc5c(-c6ccc(Cl)s6)ccnc5[nH]4)c3n2)c1` [Compound 1043, N-(5-(3-(7-(5-chlorothiophen-2-yl)-3H-imidazo[4,5-b]pyridin-2-yl)-1H-pyrazolo [4,3-b]pyridin-5-yl)pyridin-3-yl)pivalamide], the EC50 in assay [1] is 419 nM; in assay [2], 30 nM. The Emax in assay [2] was 65%.

As for `Clc1ccc(-c2ccnc3[nH]c(-c4n[nH]c5ccc(-c6cncc(CN7CCCC7)c6)nc45)nc23)s1` [Compound 1049, 3-(7-(5-chlorothiophen-2-yl)-3H-imidazo[4,5-b]pyridin-2-yl)-5-(5-(pyrrolidin-1-ylmethyl)pyridin-3-yl)-1H-pyrazolo[4,3-b]pyridine], the EC50 in assay [1] came to 681 nM; in assay [2], 10 nM. The Emax in assay [2] is 74%.

As to `O=C(Nc1cncc(-c2ccc3[nH]nc(-c4nc5c(-c6ccc(Cl)s6)ccnc5[nH]4)c3n2)c1)C1CCC1` [Compound 1056, N-(5-(3-(7-(5-chlorothiophen-2-yl)-3H-imidazo[4,5-b]pyridin-2-yl)-1H-pyrazolo [4,3-b]pyridin-5-yl)pyridin-3-yl)cyclobutanecarboxamide], the results for the EC50 in assay [1] and in assay [2] were 284 nM and 10 nM, respectively. Besides, the Emax in assay [2] is 102%.
